Experimental data taken from article PMC11078746 (Nature, 2024).
“And” between values parts separate entries of the source, which are not always exact repeats. Equal values may be shown once.

Assays:
[1] = test system: 2861-HX xenograft; assay: MSI xenograft model efficacy; type: in vivo, mouse; conditions: colorectal carcinoma, 60 or 120 mg/kg
Protocol: (§1) All animal studies were conducted in accordance with ethics and procedures covered by permit BS-2275 and BS-1975 issued by the Kantonales Veterinäramt Basel-Stadt and in strict adherence to guidelines of the Eidgenössisches Tierschutzgesetz and the Eidgenössische Tierschutzverordnung, Switzerland. All animal studies were approved by the internal ethics committee. All animals had access to food and water ad libitum and were identified with transponders. They were housed in a specific-pathogen-free facility in IVC racks under a 12 h–12 h light–dark cycle. To establish cell-line-derived xenograft models, 6–7-week-old female athymic nude (Crl:NU(NCr)-Foxn1^nu) or SCID-BEIGE (CB17.Cg-PrkdcscidLystbg-J/Crl) mice from Charles River were engrafted subcutaneously with 5 million tumour cells in HBSS (H6648, Sigma-Aldrich). For SNU-407, Lovo, IM95, RL95.2, Ishikawa and IGROV-1, the cells were concentrated in 50% Matrigel (354234, Corning). Patient-derived xenografts were induced and expanded by transplantation as previously described. […] For the efficacy experiment, mice were randomized into groups (n = 5–6) for a mean tumour size of 100–150 mm^3. […] Blood samples were collected on day 7 and 91. […] Tumour responses are reported with the measures of tumour volumes from the treatment start. […] Animals were randomized (n = 3) and tumour samples were collected at 0, 1, 4, 8 and 24 h on the first day and then collected 4 h after the last treatment on day 3, 8, 10, 14 (including a 24 h timepoint), 17 and 21. Tumours were excised, weighed, either frozen in liquid nitrogen and cryogenic dry pulverized with the CryoPrep system (model CP-02, Covaris) or processed to FFPE after fixation. […] On day 12, blood samples were collected for PK analysis. On the last day (3 h after the last treatment), tumours were excised, weighed, frozen in liquid nitrogen and cryogenic dry pulverized for PD analysis.

[2] = test system: 3205-HX xenograft; assay: MSI xenograft model efficacy; type: in vivo, mouse; conditions: colorectal carcinoma, 60 or 120 mg/kg
Protocol: as §1

[3] = test system: 5148-HX xenograft; assay: MSI xenograft model efficacy; type: in vivo, mouse; conditions: Gastric carcinoma, 60 or 120 mg/kg
Protocol: as §1

[4] = test system: 5441-HX xenograft; assay: MSI xenograft model efficacy; type: in vivo, mouse; conditions: colorectal carcinoma, 60 or 120 mg/kg
Protocol: as §1

[5] = test system: 5495-HX xenograft; assay: MSI xenograft model efficacy; type: in vivo, mouse; conditions: colorectal carcinoma, 60 or 120 mg/kg
Protocol: as §1

[6] = test system: HCT116 TP53 WT xenograft; assay: MSI xenograft model efficacy; type: in vivo, mouse; conditions: for Mean TVol / Tumour volume (TVol): HCT116 WT, 60 mpk; for Tumour volume (TVol): single mouse, 60 mg/kg
Protocol: as §1

[7] = test system: IGROV1 xenograft; assay: MSI xenograft model efficacy; type: in vivo, mouse; conditions: IGROV1, Ovarian carcinoma; 60 or 120 mg/kg
Protocol: as §1

[8] = test system: IM95 xenograft; assay: MSI xenograft model efficacy; type: in vivo, mouse; conditions: IM95, Gastric carcinoma; 60 or 120 mg/kg
Protocol: as §1

[9] = test system: JHUEM2 xenograft; assay: MSI xenograft model efficacy; type: in vivo, mouse; conditions: JHUEM2, Endometrial carcinoma; 60 or 120 mg/kg
Protocol: as §1

[10] = test system: LIM2405 xenograft; assay: MSI xenograft model efficacy; type: in vivo, mouse; conditions: LIM2405, colorectal carcinoma; 60 or 120 mg/kg
Protocol: as §1

[11] = test system: LS411N xenograft; assay: MSI xenograft model efficacy; type: in vivo, mouse; conditions: colorectal carcinoma, 60 or 120 mg/kg
Protocol: as §1

[12] = test system: LoVo xenograft; assay: MSI xenograft model efficacy; type: in vivo, mouse; conditions: colorectal carcinoma, 60 or 120 mg/kg
Protocol: as §1

[13] = test system: OVK18 xenograft; assay: MSI xenograft model efficacy; type: in vivo, mouse; conditions: OVK18, Ovarian carcinoma; 60 or 120 mg/kg
Protocol: as §1

[14] = test system: RKO xenograft; assay: MSI xenograft model efficacy; type: in vivo, mouse; conditions: colorectal carcinoma, 60 or 120 mg/kg
Protocol: as §1

[15] = test system: RL95.2 xenograft; assay: MSI xenograft model efficacy; type: in vivo, mouse; conditions: RL95.2, Endometrial carcinoma; 60 or 120 mg/kg
Protocol: as §1

[16] = test system: SNU407 xenograft; assay: MSI xenograft model efficacy; type: in vivo, mouse; conditions: SNU407, colorectal carcinoma; 60 or 120 mg/kg
Protocol: as §1

[17] = test system: TOV21G xenograft; assay: MSI xenograft model efficacy; type: in vivo, mouse; conditions: Ovarian carcinoma, 60 or 120 mg/kg
Protocol: as §1

[18] = test system: LS180; assay: 4 day proliferation assay (CellTiter-Glo); conditions: Homo sapiens, LS180, 96 h, read-out: 4 day assay GI50

CCc1c(N2CCN(C(=O)c3ncnc(C)c3O)CC2)c(=O)n2nc(C3=CCOCC3)nc2n1CC(=O)Nc1ccc(C(F)(F)F)cc1Cl [HRO761]
Best average response [1]: -70 | Best average response [2]: 400 | Best average response [3]: -36 | Best average response [4]: 7 | Best average response [5]: -50 | Best average response ([6]; HCT116 P53 WT, colorectal carcinoma, 60 or 120 mg/kg): -60 | Mean TVol ([6]; day 0): 219.01 mm3 | Tumour volume (TVol) ([6]; day 0 post 1st dose): 93.52 mm3 and 234.39 mm3 and 157.76 mm3 and 320.89 mm3 and 161.54 mm3 and 345.97 mm3 | Mean TVol ([6]; day 3): 281.33 mm3 | Tumour volume (TVol) ([6]; day 3): 104.72 mm3 and 379.81 mm3 and 232.95 mm3 and 368.27 mm3 and 173.78 mm3 and 428.47 mm3 | Mean TVol ([6]; day 7): 242.31 mm3 | Tumour volume (TVol) ([6]; day 7): 103.44 mm3 and 369.23 mm3 and 158.31 mm3 and 312.72 mm3 | Mean TVol ([6]; day 10): 237.77 mm3 | Mean TVol ([6]; day 14): 208.41 mm3 | Tumour volume (TVol) ([6]; day 14): 70.08 mm3 and 324.15 mm3 and 133.86 mm3 and 295.48 mm3 and 98.69 mm3 and 328.18 mm3 | Mean TVol ([6]; day 17): 206.85 mm3 | Tumour volume (TVol) ([6]; day 17): 71.54 mm3 and 333.55 mm3 and 123.78 mm3 and 277.24 mm3 and 67.49 mm3 and 367.52 mm3 | Mean TVol ([6]; day 21): 182.16 mm3 | Tumour volume (TVol) ([6]; day 21): 68.28 mm3 and 318.05 mm3 and 133.60 mm3 and 239.83 mm3 and 55.74 mm3 and 277.43 mm3 | Mean TVol ([6]; day 24): 152.12 mm3 | Tumour volume (TVol) ([6]; day 24): 51.97 mm3 and 322.25 mm3 and 104.45 mm3 and 220.64 mm3 and 35.09 mm3 and 178.30 mm3 | Mean TVol ([6]; day 29): 108.49 mm3 | Tumour volume (TVol) ([6]; day 29): 53.97 mm3 and 224.74 mm3 and 66.70 mm3 and 182.17 mm3 and 28.07 mm3 and 95.29 mm3 | Mean TVol ([6]; day 31): 115.60 mm3 | Tumour volume (TVol) ([6]; day 31): 67.20 mm3 and 248.87 mm3 and 79.67 mm3 and 165.88 mm3 and 35.96 mm3 and 96.04 mm3 | Mean TVol ([6]; day 35): 82.07 mm3 | Tumour volume (TVol) ([6]; day 35): 74.11 mm3 and 171.12 mm3 and 62.35 mm3 and 120.74 mm3 and 20.08 mm3 and 43.99 mm3 | Mean TVol ([6]; day 38): 85.39 mm3 | Tumour volume (TVol) ([6]; day 38): 95.75 mm3 and 187.18 mm3 and 54.75 mm3 and 135.21 mm3 and 15.88 mm3 and 23.55 mm3 | Mean TVol ([6]; day 42): 74.87 mm3 | Tumour volume (TVol) ([6]; day 42): 111.35 mm3 and 127.20 mm3 and 44.64 mm3 and 140.38 mm3 and 12.27 mm3 and 13.40 mm3 | Mean TVol ([6]; day 45): 100.30 mm3 | Tumour volume (TVol) ([6]; day 45): 197.14 mm3 and 123.97 mm3 and 48.50 mm3 and 218.58 mm3 and 10.09 mm3 and 3.53 mm3 | Mean TVol ([6]; day 49): 121.82 mm3 | Tumour volume (TVol) ([6]; day 49): 316.70 mm3 and 100.63 mm3 and 72.22 mm3 and 229.46 mm3 and 10.59 mm3 and 1.31 mm3 | Mean TVol ([6]; day 53): 194.25 mm3 | Tumour volume (TVol) ([6]; day 53): 483.74 mm3 and 180.66 mm3 and 93.29 mm3 and 393.80 mm3 and 13.76 mm3 and 0.25 mm3 | Mean TVol ([6]; day 56): 269.54 mm3 | Tumour volume (TVol) ([6]; day 56): 671.24 mm3 and 160.85 mm3 and 148.76 mm3 and 618.00 mm3 and 18.36 mm3 and 0.00 mm3 | Mean TVol ([6]; day 60): 408.84 mm3 | Tumour volume (TVol) ([6]; day 60): 1070.44 mm3 and 236.23 mm3 and 249.04 mm3 and 872.91 mm3 and 24.42 mm3 and 0.00 mm3 | Best average response [7]: -38 | Best average response [8]: -90 | Best average response [9]: 400 | Best average response [10]: 44 | Best average response [11]: -100 | Best average response [12]: -20 | Best average response [13]: 500 | Best average response [14]: 300 | Best average response [15]: -66 | Best average response [16]: -40 | Best average response [17]: 190 | GI50 [18]: 3.5 µM
